Experimental data as given in US20230348437A1, “COMPOUNDS, COMPOSITIONS AND METHODS” (Denali Therapeutics Inc., priority 2020, published 2023).
Where two headings read alike, the source gives them in different places.

Tests used:
[1] = system: NLRP3 (IL-1β release from THP-1 cells); test: IL-1β detection in IFN-γ differentiated THP-1 cells, LPS induction and ATP, 96 well format; format: cell-based; conditions: Homo sapiens, IFN-γ 25 ng/mL, LPS 50 ng/mL, ATP 5 mM, IL-1β ELISA, read-out: Activity (IC50 class)
Procedure: (§1) Compounds as provided herein were tested in the following assay. Cell culture medium employed contained RPMI 1640 medium (89%), FBS (10%), Pen/Strep (1%), and 2-mercaptoethanol (0.05 mM). Freezing medium was made up of 90% FBS and 10% DMSO. THP-1 cells were removed from the liquid nitrogen and placed into a 37° C. water bath to thaw, until signs of ice dissipated. The cells were then added to 9 mL of warm cell culture medium and centrifuged for 5 minutes at 1000 rpm. The supernatant was discarded, and the cells were resuspended in new cell culture medium. The THP-1 cells were then split and cultured in the cell culture medium, being passaged every 2-3 days (5×10^5 cells/mL passaged every two days, 3×10^5 cells/mL passaged every three days). Cell density was maintained between 5×10^5-1.5×10^6 viable cells/mL.
To freeze, cells were resuspended with fresh freezing medium, adjusting the cell density to between 3×10^6-10×10^6 cells/mL. The cell suspension was partitioned into 1 mL aliquots per vial, and the vials were transferred to a -80° C. freezer. After one day at -80° C., the cell vials were transferred to liquid nitrogen freezer for storage.
PBST solution was prepared by mixing 3600 mL of water, 400 mL of 10X PBS, and 4 mL of Tween 20. IFN-γ solution was reconstituted with 100 µL of water to obtain a 1 mg/mL solution, which was then diluted with 0.1 % BSA to provide a 100 ng/mL solution. The IFN-γ solution was stored at -20° C. LPS was reconstituted with 1 mL of PBS solution to obtain a 1 mg/mL stock solution, which was further diluted to 50 ng/mL with serum-free medium. The LPS solution was stored at 4° C.
The 96 well plates were then incubated at 37° C. under a humidified atmosphere of 5% CO2 for 24 h.
LPS induction: When IFN-γ treatment was completed, the supernatants were discarded by hand. 100 µL of a 1X solution of LPS in serum-free medium (50 ng/mL) was added. The plates were incubated in a 37° C. incubator under a humidified atmosphere of 5% CO2 for 4 h. Sample compounds were dissolved in DMSO and the compound solutions were dispensed to the wells using a Tecan D300e digital dispenser. The final concentration of DMSO for each well was 0.5%. The plates were then incubated at 37° C. under a humidified atmosphere of 5% CO2 for 1 h. 20 µL of a 6X solution of ATP was added (final concentration per well: 5 mM), and the plates incubated at 37° C. under a humidified atmosphere of 5% CO2 for 1 h. The supernatants were then collected and analyzed using an IL-Iβ detection kit. If needed, the test samples could be stored at -20° C. until analyzed.
Compound dilution: Compound solution source plates (20 µL of a 10 mM solution of each compound was delivered to the specified wells and stored in a nitrogen cabinet until tested.
Coat Elisa plate: The captured antibody (mAb Mt175) was diluted in PBS to a concentration of 2 µg/mL, and then used to coat the ELISA plate (SIGMA-P6366) overnight at 4° C.
The antibody coat was discarded and the plate was washed 4 times with PBST. The plate was blocked by adding 25 µL/well of blocking buffer (LiCor-927-40000) with 0.1% Tween 20, then incubated for 1 h at room temperature. The blocking buffer was then discarded and the plate was washed 4 times with PBST.
One hour before test sample addition, the sample plates were allowed to thaw at room temperature, centrifuged at 1000 rpm for 1 minute, and shaken for 30 seconds. 25 µL/well of the test samples were transferred to the ELISA plate, and the plate was incubated for 2 h at room temperature.
The test samples were discarded and the ELISA plate was washed 4 times with PBST. 15 µL/well of mAb7P10-biotin at 0.5 µg/mL (1:1000) in blocking buffer was then added to the ELISA plate and it was incubated for 1 h at room temperature.
The antibody was discarded and the ELISA plate was washed 4 times with PBST. Then 15 µL/well of streptavidin-HRP diluted 1:1000 in blocking buffer was added to the ELISA plate and it was allowed to incubate for 1 h at room temperature.

[2] = system: NLRP3 (IL-1β secretion from THP-1 cells); test: IL-1β secretion assay in 384-well plates, PMA differentiated THP-1 cells, LPS and nigericin stimulation; format: cell-based; conditions: Homo sapiens
Procedure: as §1, with “Cell culture medium employed contained RPMI 1640 medium (89%), FBS (10%), Pen/Strep (1%), and 2-mercaptoethanol (0.05 mM).” left out
PMA was dissolved in DMSO to make a stock solution at 5 mg/mL and stored in 10 µl aliquots at -20° C. for single use. PMA is added to normal growth medium. LPS was diluted with 1 mL of water solution to provide a 1 mg/mL stock solution and stored in 15 µl aliquots at -20° C. for single use. Nigericin is diluted in ice cold 100% ethanol to 5 mg/mL (6.7 mM) and stored in 75 µL aliquots at -20° C. for single use. […] The two control conditions used to qualify and normalize test compound dose-response curves were as follows: High Control = 25 ng/mL LPS, 5 µM Nigericin, 0.5% DMSO, Low Control = 25 ng/mL, LPS, 0.5% DMSO.
THP-1 cells were diluted to provide a suspension at a concentration of 1.0×10^6 cells/mL with the total volume of suspension required to enable the desired number of assay plates. The growth media was supplemented with PMA (5 ng/mL final concentration) and the cells were incubated at 37° C. under a humidified atmosphere of 5% CO2 for 40 h.
All media was carefully aspirated from each culture flask. The cells were washed carefully with 1x DPBS. The cells were then briefly digested with trypsin LE for 5 minutes at 23° C. and immediately resuspended in cell growth media. After resuspension, the cells were centrifuged at 1000 rpm for 3 minutes and the supernatant was discarded. The cells were resuspended in DPBS and once again centrifuged at 1000 rpm for 5 minutes. The supernatant was discarded and the cell pellet was resuspended in serum-free media supplemented with LPS (25 ng/mL final concentration) to enable the distribution of 30 K THP-1 cells within 45 µL of media into each well of 384-well PDL-coated plates. The 384-well plates were then incubated at 37° C. under a humidified atmosphere of 5% CO2 for 2 h. Following this period, test compounds were dispensed by Tecan across the desired concentration range with all wells normalized to a final 0.5 % DMSO concentration. The plates were then incubated at 37° C. under a humidified atmosphere of 5% CO2 for 1 h. Following this period, 5 µL of the […] nigericin stock solution was added to each of the appropriate wells and plates were centrifuged at 1000 rpm for 30 seconds. The plates were the immediately reintroduced to the incubator at 37° C. under a humidified atmosphere of 5% CO2 for 2 h. After this time, 35 µL/well of supernatant was collected and transferred into v-bottom plate and centrifuged at 1000 rpm for 1 minute. These supernatant aliquots were analyzed using an IL-Iβ detection kit as described below. If needed, the test samples could be snap frozen and stored at -80° C. until analyzed.
To prepare each ELISA plate, capture antibody (mAb Mt175) was diluted with PBS to a final concentration of 2 µg/mL and then 20 µL of this solution was added to each well of the ELISA plate. Each plate was allowed to incubate overnight at 4° C. The next day, the capture antibody solution was removed and discarded. […] Each ELISA plate was then allowed to incubate for 1 hour at 23° C. After this time, the blocking buffer was removed and discarded. Each ELISA plate was washed 4 times with PBST. During this time, the v-bottomed plates containing the supernatant aliquots from the assay run were centrifuged at 300 g for 5 minutes before transferring 15 µL/well of the supernatant sample to each ELISA plate. […]

[3] = THP-1 cells, PMA 5 ng/mL, LPS 25 ng/mL, nigericin, IL-1β ELISA, 384-well, read-out: Activity

SMILES | IC50 [1] | IC50 [2, 3] | IC50 ([2]; THP-1, read-out: Activity (µM))
CC(C)c1nn(CC(=O)N[C@H]2C[C@@](C)(O)C2)c(=O)cc1-c1cc(Cl)ccc1Cl [Example 16, 2-(4-(2,5-dichlorophenyl)-3-isopropyl-6-oxopyridazin-1(6H)-yl)-N-(cis-3-hydroxy-3-methylcyclobutyl)acet amide] | < 10 µM | 1.15 µM | –
CC(C)c1nn(CC(=O)N[C@H]2C[C@@](C)(O)C2)c(=O)cc1-c1cccc(F)c1 [Example 12, 2-(4-(3-fluorophenyl)-3-isopropyl-6-oxopyridazin-1(6H)-yl)-N-(cis-3-hydroxy-3-methylcyclobutyl)acetamide] | < 10 µM | 1.66 µM | –
CC(C)c1nn(CC(=O)N[C@H]2C[C@@](C)(O)C2)c(=O)cc1-c1cccc(Cl)c1 [Example 2, 2-(4-(3-chlorophenyl)-3-isopropyl-6-oxopyridazin-1(6H)-yl)-N-(cis-3-hydroxy-3-methylcyclobutyl)acetamide] | < 10 µM | 1.49 µM | –
CC(C)c1nn(CC(=O)N[C@H]2C[C@@](C)(O)C2)c(=O)cc1-c1ccccn1 [Example 17] | < 10 µM | 19.5 µM | –
CC(C)c1nn(CC(=O)Nc2ncncc2F)c(=O)cc1-c1cccc(Cl)c1 [Example 6, 2-(4-(3-chlorophenyl)-3-isopropyl-6-oxopyridazin-1(6H)-yl)-N-(5-fluoropyrimidin-4-yl)acetamide] | < 10 µM | 0.535 µM | –
CC(C)c1nn(CC(=O)N[C@H]2C[C@@](C)(O)C2)c(=O)cc1-c1ccc(F)cc1 [Example 10, 2-(4-(4-fluorophenyl)-3-isopropyl-6-oxopyridazin-1(6H)-yl)-N-(cis-3-hydroxy-3-methylcyclobutyl)acetamide] | 10 to 15 µM | 50 µM | –
CC(C)c1nn(CC(=O)N[C@H]2C[C@@](C)(O)C2)c(=O)cc1-c1ccccc1Cl [Example 4, 2-(4-(2-Chlorophenyl)-3-isopropyl-6-oxopyridazin-1(6H)-yl)-N-(cis-3-hydroxy-3-methylcyclobutyl)acetamide] | < 10 µM | 5.91 µM | –
CC(C)c1nn(CC(=O)N[C@H]2C[C@@](C)(O)C2)c(=O)cc1-c1cccc(C(F)(F)F)c1 [Example 13, N-(cis-3-hydroxy-3-methylcyclobutyl)-2-(3-isopropyl-6-oxo-4-(3-(trifluoromethyl)pheny 1)pyridazin-1(6H)-yl)acetamide] | < 10 µM | 21.8 µM | –
COc1nn(CC(=O)Nc2ncc(F)cn2)c(=O)cc1-c1cc(F)cc(F)c1 [Example 57, 2-[4-(3,5-difluorophenyl)-3-methoxy-6-oxopyridazin-1-yl]-N-(5-fluoropyrimidin-2-yl)acetamide] | – | – | 1.96 µM
CC(C)c1nn(CC(=O)N[C@H]2C[C@@](C)(O)C2)c(=O)cc1-c1cc(F)ccc1F [Example 24, 2-[4-(2,5-difluorophenyl)-6-oxo-3-propan-2-ylpyridazin-1-yl]-N-(cis-3-hydroxy-3-methylcyclobutyl)acetamide] | – | 1.9 µM | –
CCc1c(-c2cccc(F)c2)c(C(C)C)nn(CC(=O)Nc2ncncc2F)c1=O [Example 35, 2-[5-ethyl-4-(3-fluorophenyl)-6-oxo-3-propan-2-ylpyridazin-1-yl]-N-(5-fluoropyrimidin-4-yl)acetamide] | – | 35.3 µM | –
CCN1CCC[C@@H](NC(=O)Cn2nc(C3CCC3)c(-c3cccc(F)c3)cc2=O)C1 [Example 40, 2-[3-cyclobutyl-4-(3-fluorophenyl)-6-oxopyridazin-1-yl]-N-[(3R)-1-ethylpiperidin-3-yl]acetamide] | – | 1.44 µM | –
Cc1ccc(F)c(-c2cc(=O)n(CC(=O)N[C@H]3C[C@@](C)(O)C3)nc2C(C)C)c1 [Example 23, 2-[4-(2-fluoro-5-methylphenyl)-6-oxo-3-propan-2-ylpyridazin-1-yl]-N-(cis-3-hydroxy-3-methylcyclobutyl)acetamide] | – | 1.89 µM | –
CCOc1nn(CC(=O)N[C@H]2C[C@@](C)(O)C2)c(=O)cc1-c1ccccc1 [Example 34] | – | 29.5 µM | –
O=C(Cn1nc(C(F)F)c(-c2cc(F)cc(F)c2)cc1=O)Nc1ncc(F)cn1 [Example 53, 2-[3-(difluoromethyl)-4-(3,5-difluorophenyl)-6-oxopyridazin-1-yl]-N-(5-fluoropyrimidin-2-yl)acetamide] | – | 2.77 µM | –
Cc1ccccc1-c1cc(=O)n(CC(=O)N[C@H]2C[C@@](C)(O)C2)nc1C(C)C [Example 26] | – | 6.66 µM | –
